Results as given in US11497751B2, “Modulators of Rho-associated protein kinase” (Redx Pharma PLC, priority 2018, dated 2022).
Counter-ions that a name gives are not always drawn.

Molecular target: T1, N-terminal 6His-tagged ROCK2 catalytic domain 11-552 (Homo sapiens, UniProt O75116)
T1 construct: N-terminal 6His-tagged ROCK2 catalytic domain 11-552; 6His (N); purchased Dundee University, UK; host or cells: baculovirus expression system
Experiment: ROCK2 binding activity: ROCK2 inhibition, ADP-Glo Kinase Assay
Assay type: biochemical
Conditions: 1.25 nM ROCK2, 100 μM long S6 peptide, 20 μM ATP; 1 hour pre-incubation; read-out: ADP-Glo kinase activity assay ROCK2 Category
Method: Assay for ROCK2 inhibition was performed using the protein construct N-terminal 6His-tagged ROCK2 catalytic domain 11-552 (Dundee University, UK). Protein was purified from a baculovirus expression system. Long S6 peptide ([…]) was used as substrate. Kinase reactions were carried out in 15 μl volume in a 96-well plate (black, half area) using 1.25 nM constitutively active ROCK2 kinase, 100 μM long S6 peptide, 20 μM ATP and test compound in DMSO (or DMSO only for controls). The final concentration of DMSO was 1%. Assay buffer was 50 mM HEPES pH 7.5 supplemented with 0.2 mM EDTA, 10 mM magnesium acetate, 0.01% Tween-20, 1 mM DTT and 0.01% BSA. Test compounds were pre-incubated with ROCK2 kinase for 1 hour before addition of ATP and long S6 peptide. After incubation for a further 1 hour, the amount of ADP produced was measured using ADP-Glo Kinase Assay (Promega) as per manufacturer's instructions. The luminescence was measured on a PHERAstar FS (BMG Labtech). The concentration of test compound required to inhibit ADP production by 50% (the IC50) was calculated using a four-parameter logistic function with software by Dotmatics.
The category “+” refers to compounds with a ROCK2 IC50 value of >10 μM. The category “++” refers to compounds with a ROCK2 IC50 value of 10 to 3 μM. The category “+++” refers to compounds with a ROCK2 IC50 value of 3 to 0.3 μM. The category “++++” refers to compounds with a ROCK2 IC50 value of <0.3 μM.

T1 sequence (O75116 11-552): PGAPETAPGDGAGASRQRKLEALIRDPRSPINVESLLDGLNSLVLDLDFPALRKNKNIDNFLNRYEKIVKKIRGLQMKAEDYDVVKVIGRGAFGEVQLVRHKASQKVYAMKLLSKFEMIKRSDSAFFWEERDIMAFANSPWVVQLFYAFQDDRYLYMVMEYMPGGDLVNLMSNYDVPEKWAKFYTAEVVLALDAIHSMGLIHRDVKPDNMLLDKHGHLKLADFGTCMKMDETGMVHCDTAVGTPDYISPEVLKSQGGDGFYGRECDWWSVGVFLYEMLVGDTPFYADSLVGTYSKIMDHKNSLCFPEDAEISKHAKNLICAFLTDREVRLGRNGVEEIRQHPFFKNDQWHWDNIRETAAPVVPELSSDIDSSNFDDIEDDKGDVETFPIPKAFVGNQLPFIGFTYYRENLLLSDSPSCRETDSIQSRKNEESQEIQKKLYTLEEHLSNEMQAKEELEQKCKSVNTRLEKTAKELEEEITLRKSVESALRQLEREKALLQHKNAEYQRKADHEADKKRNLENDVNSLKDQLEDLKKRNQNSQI

Q: Which IC50 does the source give for `CCNC(=O)c1ccc(-c2nc(Nc3ccc4[nH]ncc4c3)n(C)n2)c(C)c1` [Example 399] here?
A: < 300 nM

Q: How did the IC50 turn out when `COc1cc(-c2nc(Nc3ccc4[nH]ncc4c3C3CC3)n(C)n2)ccc1C(=O)NCC(F)(F)F` [Example 280] was run?
A: < 300 nM

Q: How did the IC50 turn out when `Cn1nc(-c2ccc(C(=O)NC(CO)C(F)(F)F)cc2)nc1Nc1ccc2[nH]ncc2c1C1CC1` (stereo not drawn) [Example 311] was run?
A: < 300 nM

Q: Which IC50 does the source give for `COc1cc(-c2nc(Nc3ccc4[nH]ncc4c3Cl)n(-c3ccccc3)n2)ccc1OCC(=O)NC1CCNC1` (stereo not drawn) [Example 149] here?
A: < 300 nM

Q: How did the IC50 turn out when `COc1cc(-c2nc(Nc3ccc4[nH]ncc4c3Cl)n(C)n2)ccc1OCC(=O)N[C@@H]1CCCC[C@H]1O` [Example 213] was run?
A: < 300 nM

Q: Which IC50 does the source give for `CS(=O)(=O)NCCOc1ccc(-c2nnc(Nc3ccc4[nH]ncc4c3)[nH]2)cc1` [Example 220, N-[2-[4-[5-(1H-Indazol-5-ylamino)-4H-1,2,4-triazol-3-yl]phenoxy]ethyl]methanesulfonamide] here?
A: 300 to 3000 nM

Q: With `COCCn1nc(-c2ccc(C(=O)NCC(F)(F)F)c(OC)c2)nc1Nc1ccc2[nH]ncc2c1C` [Example 448] as the compound, how does the IC50 read?
A: < 300 nM

Q: With `COc1cc(-c2nc(Nc3ccc4[nH]ncc4c3Cl)n(-c3ccncc3)n2)ccc1OCC(=O)NC(C)C` [Example 152] as the compound, how does the IC50 read?
A: < 300 nM

Q: How did the IC50 turn out when `CC(C)NC(=O)COc1ccc(-c2nc(Nc3ccc4[nH]ncc4c3)n(C)n2)cc1Cl` [Example 250, 2-[2-chloro-4-[5-(1H-indazol-5-ylamino)-1-methyl-1,2,4-triazol-3-yl]phenoxy]-N-isopropyl-acetamide] was run?
A: < 300 nM

Q: Which IC50 does the source give for `CCNC(=O)c1ccc(-c2nc(Nc3ccc4[nH]ncc4c3Cl)n(C)n2)c(OC)c1` [Example 347] here?
A: < 300 nM

Q: For `COc1cc(-c2nc(Nc3ccc4[nH]nc(Cl)c4c3)n(C)n2)ccc1C(=O)NCC(F)(F)F` [Example 429], which IC50 is on record?
A: < 300 nM

Q: With `CCNC(=O)N1CCC(c2nc(Nc3ccc4[nH]ncc4c3C3CC3)n(C)n2)CC1` [Example 340, 4-[5-[(4-cyclopropyl-1H-indazol-5-yl)amino]-1-methyl-1,2,4-triazol-3-yl]-N-ethyl-piperidine-1-carboxamide] as the compound, how does the IC50 read?
A: > 10000 nM

Q: How did the IC50 turn out when `COCCn1nc(-c2ccc(C(=O)NCC(F)(F)F)cc2)nc1Nc1ccc2[nH]ncc2c1C1CC1` [Example 438] was run?
A: < 300 nM

Q: With `COC(=O)COc1ccc(-c2nnc(Nc3ccc4[nH]ncc4c3)[nH]2)cc1` [Example 17] as the compound, how does the IC50 read?
A: < 300 nM

Q: For `Cn1nc(-c2ccc(C(=O)NC3(C)CC3)cc2)nc1Nc1ccc2[nH]ncc2c1Cl` [Example 258], which IC50 is on record?
A: < 300 nM

Q: `O=C(COc1ccc(-c2nnc(Nc3ccc4[nH]ncc4c3)[nH]2)cc1)N[C@H]1CCNC1` [Example 158] was tested. Which IC50 did it give?
A: < 300 nM

Q: How did the IC50 turn out when `COc1cc(-c2nc(Nc3ccc4[nH]ncc4c3C)n(C)n2)cnc1C(=O)NC1CC1` [Example 420] was run?
A: 300 to 3000 nM

Q: Which IC50 does the source give for `COc1cc(-c2nc(Nc3ccc4[nH]ncc4c3Cl)n(C)n2)ccc1OCC(=O)NC(C)c1cccnc1` (stereo not drawn) [Example 216] here?
A: < 300 nM

Q: How did the IC50 turn out when `Cn1nc(-c2cccc(OC(F)(F)F)c2)nc1Nc1ccc2[nH]ncc2c1Cl` [Example 136] was run?
A: 300 to 3000 nM

Q: With `Cn1nc(-c2ccc3c(c2)CNCC3)nc1Nc1ccc2[nH]ncc2c1C1CC1` [Example 389] as the compound, how does the IC50 read?
A: 3000 to 10000 nM

Q: Which IC50 does the source give for `CC(C)NC(=O)c1ccc(-c2nc(Nc3ccc4[nH]ncc4c3Cl)n(C)n2)cc1` [Example 166, 4-[5-[(4-chloro-1H-indazol-5-yl)amino]-1-methyl-1,2,4-triazol-3-yl]-N-isopropyl-benzamide] here?
A: < 300 nM

Q: With `O=C(COc1ccc(-c2nnc(Nc3ccc4[nH]ncc4c3)[nH]2)cc1)N1CCOCC1` [Example 154, 2-[4-[5-(1H-Indazol-5-ylamino)-4H-1,2,4-triazol-3-yl]phenoxy]-1-morpholinoethanone] as the compound, how does the IC50 read?
A: 300 to 3000 nM

Q: How did the IC50 turn out when `COc1cc(-c2nc(Nc3ccc4[nH]ncc4c3Cl)n(C)n2)ccc1C(=O)NC1(CO)CC1` [Example 198] was run?
A: < 300 nM

Q: With `Cn1nc(-c2ccccc2N)nc1Nc1ccc2[nH]ncc2c1Cl` [Example 123] as the compound, how does the IC50 read?
A: 300 to 3000 nM

Q: For `COc1cc(-c2nnc(Nc3ccc4[nH]ncc4c3)n2-c2ccccn2)ccc1OCC(=O)NC(C)C` [Example 147], which IC50 is on record?
A: < 300 nM

Q: For `COc1cc(-c2nc(Nc3cnc4[nH]ncc4c3)n(C)n2)ccc1C(=O)NC1CC1` [Example 332], which IC50 is on record?
A: 3000 to 10000 nM

Q: With `COc1cc(OC)cc(-c2nnc(Nc3ccc4[nH]ncc4c3)[nH]2)c1` [Example 3] as the compound, how does the IC50 read?
A: 300 to 3000 nM

Q: Which IC50 does the source give for `CCNC(=O)c1ccc(-c2nc(Nc3ccc4[nH]ncc4c3Cl)n(C)n2)cc1Cl` [Example 254] here?
A: 300 to 3000 nM

Q: How did the IC50 turn out when `CCc1c(Nc2nc(-c3ccc(C(=O)NCC(F)(F)F)cc3)nn2C)ccc2[nH]ncc12` [Example 423] was run?
A: < 300 nM

Q: With `Cc1c(Nc2nc(-c3ccc(C(N)C(F)(F)F)cc3)nn2C)ccc2[nH]ncc12` (stereo not drawn) [Example 422] as the compound, how does the IC50 read?
A: > 10000 nM

Q: Which IC50 does the source give for `CC(C)NC(=O)NCCOc1ccc(-c2nnc(Nc3ccc4[nH]ncc4c3)[nH]2)cc1` [Example 224, 1-[2-[4-[5-(1H-indazol-5-ylamino)-4H-1,2,4-triazol-3-yl]phenoxy]ethyl]-3-isopropyl-urea dihydrochloride] here?
A: < 300 nM

Q: How did the IC50 turn out when `COc1cc(-c2nc(Nc3cnc4[nH]ncc4c3)n(C)n2)ccc1C(=O)NC(C)C` [Example 331] was run?
A: 300 to 3000 nM

Q: Which IC50 does the source give for `C=C(C)c1c(Nc2nc(-c3ccc(C(=O)NCC(F)(F)F)cc3)nn2C)ccc2[nH]ncc12` [Example 458, 4-[5-[(4-isopropenyl-1H-indazol-5-yl)amino]-1-methyl-1,2,4-triazol-3-yl]-N-(2,2,2-trifluoroethyl)benzamide] here?
A: < 300 nM

Q: `O=C(O)COc1ccc(-c2nnc(Nc3ccc4[nH]ncc4c3)[nH]2)cc1` [Example 31] was tested. Which IC50 did it give?
A: 300 to 3000 nM

Q: How did the IC50 turn out when `CC(C)n1nccc1-c1nc(Nc2ccc3[nH]ncc3c2Cl)n(C)n1` [Example 112] was run?
A: 300 to 3000 nM

Q: How did the IC50 turn out when `Cn1nc(-c2ccc(C(=O)NC3(C)CC3)cc2)nc1Nc1ccc2[nH]ncc2c1C1CC1` [Example 294] was run?
A: < 300 nM

Q: `Cn1nc(-c2ccc(C(=O)NCC(F)(F)F)cc2)nc1Nc1ccc2[nH]nc(Cl)c2c1` [Example 430] was tested. Which IC50 did it give?
A: < 300 nM

Q: Which IC50 does the source give for `Cn1nc(-c2ccc3c(c2)CCNC3=O)nc1Nc1ccc2[nH]ncc2c1C1CC1` [Example 377] here?
A: < 300 nM

Q: How did the IC50 turn out when `COc1cc(-c2nnc(Nc3ccc4[nH]ncc4c3)[nH]2)ccc1OCc1nnc(C)o1` [Example 40] was run?
A: 300 to 3000 nM

Q: `CC(C)NC(=O)COc1ccc(-c2nnc(Nc3ccc4[nH]ncc4c3)[nH]2)cc1` [Example 7] was tested. Which IC50 did it give?
A: < 300 nM

Q: Which IC50 does the source give for `COc1cc(-c2nc(Nc3ccc4[nH]ncc4c3C)n(C)n2)ccc1C(=O)NCC(F)(F)F` [Example 178] here?
A: < 300 nM

Q: For `COc1cc(-c2nc(Nc3cnc4[nH]ncc4c3)n(C)n2)ccc1C(=O)NCC(F)(F)F` [Example 330], which IC50 is on record?
A: < 300 nM

Q: Which IC50 does the source give for `NCCOc1ccc(-c2nnc(Nc3ccc4[nH]ncc4c3)[nH]2)cc1` [Example 24] here?
A: 300 to 3000 nM

Q: `Cn1nc(-c2ccc(S(=O)(=O)N3CCOCC3)cc2)nc1Nc1ccc2[nH]ncc2c1Cl` [Example 78] was tested. Which IC50 did it give?
A: 3000 to 10000 nM

Q: With `COCCn1nc(-c2ccc(C(=O)NCC(F)(F)F)c(OC)c2)nc1Nc1ccc2[nH]ncc2c1C1CC1` [Example 439] as the compound, how does the IC50 read?
A: < 300 nM

Q: Which IC50 does the source give for `COc1cc(-c2nnc(Nc3ccc4[nH]ncc4c3)[nH]2)ccc1OCC(=O)NC1CCC1` [Example 165] here?
A: < 300 nM

Q: How did the IC50 turn out when `CC(C)NC(=O)CCOc1ccc(-c2nnc(Nc3ccc4[nH]ncc4c3)[nH]2)cc1` [Example 21] was run?
A: 300 to 3000 nM

Q: For `Cn1nc(-c2ccc(C(=O)NC3CCC3)cc2)nc1Nc1ccc2[nH]ncc2c1Cl` [Example 176], which IC50 is on record?
A: < 300 nM

Q: `COCCn1nc(-c2ccc(C(=O)NCC(F)(F)F)c(C)c2)nc1Nc1ccc2[nH]ncc2c1C1CC1` [Example 337] was tested. Which IC50 did it give?
A: < 300 nM

Q: With `COc1cc(-c2nc(Nc3ccc4[nH]ncc4c3)n(C)n2)ccc1C(=O)NCC(F)(F)F` [Example 240, 4-[5-(1H-indazol-5-ylamino)-1-methyl-1,2,4-triazol-3-yl]-2-methoxy-N-(2,2,2-trifluoroethyl)benzamide] as the compound, how does the IC50 read?
A: < 300 nM

Q: How did the IC50 turn out when `Cc1cc(-c2nnc(Nc3ccc4[nH]ncc4c3)[nH]2)ccc1OCC(=O)NC(C)C` [Example 10] was run?
A: < 300 nM

Q: Which IC50 does the source give for `COc1cc(-c2nc(Nc3ccc4[nH]ncc4c3C)n(C)n2)ccc1C(=O)NCCN(C)C` [Example 329] here?
A: 3000 to 10000 nM

Q: How did the IC50 turn out when `Cc1cc(-c2nc(Nc3ccc4[nH]ncc4c3C)n(C)n2)ccc1C(=O)NCC(F)(F)F` [Example 417] was run?
A: < 300 nM

Q: With `CNC(=O)c1ccc(-c2nc(Nc3ccc4[nH]ncc4c3Cl)n(C)n2)cc1` [Example 62] as the compound, how does the IC50 read?
A: < 300 nM

Q: How did the IC50 turn out when `CCNC(=O)c1ccc(-c2nc(Nc3ccc4[nH]ncc4c3)n(C)n2)c(F)c1` [Example 406] was run?
A: < 300 nM

Q: With `COc1cc(-c2nc(Nc3ccc4[nH]ncc4c3Cl)n(C(C)C)n2)ccc1C(=O)NCC(F)(F)F` [Example 192] as the compound, how does the IC50 read?
A: < 300 nM

Q: With `CCNC(=O)c1ccc(-c2nc(Nc3ccc4[nH]ncc4c3)n(C)n2)cc1C` [Example 394] as the compound, how does the IC50 read?
A: 300 to 3000 nM

Q: With `CC(C)NC(=O)OCc1ccc(-c2nnc(Nc3ccc4[nH]ncc4c3)[nH]2)cc1` [Example 34] as the compound, how does the IC50 read?
A: < 300 nM

Q: With `Cn1nc(-c2ccc(C(=O)NC3(CO)CC3)cc2)nc1Nc1ccc2[nH]ncc2c1C1CC1` [Example 293] as the compound, how does the IC50 read?
A: < 300 nM

Q: With `CCNC(=O)c1ccc(-c2nc(Nc3ccc4[nH]ncc4c3Cl)n(C)n2)cc1C#N` [Example 358] as the compound, how does the IC50 read?
A: < 300 nM
